In brackets after ≈: the same amount, converted by molar mass.
Key:
[1] = test system: human pancreas cancer PANC-1; test: In vitro cell growth inhibition test, MTT assay; type: cell-based; details: MTT assay 4 days after compound addition
From the text: (§1) Test Example 2 In Vitro Cell Growth Inhibition Test Cells and MTT Assay
(§2) Human squamous lung cancer […], human squamous lung cancer Ma44, human lung adenocarcinoma A549, human colon cancer HT29 and human pancreas cancer PANC-1 were used.

[2] = test system: human lung adenocarcinoma A549; test: In vitro cell growth inhibition test, MTT assay; type: cell-based; details: MTT assay 4 days after compound addition
From the text: as §1, §2

[3] = test system: human squamous lung cancer Ma44; test: In vitro cell growth inhibition test, MTT assay; type: cell-based; details: MTT assay 4 days after compound addition
From the text: as §1, §2

[4] = test system: human squamous lung cancer RERF-RC-AI; test: In vitro cell growth inhibition test, MTT assay; type: cell-based; details: MTT assay 4 days after compound addition
From the text: as §1, §2

human colon cancer HT29 = test: In vitro cell growth inhibition test, MTT assay; type: cell-based; details: MTT assay 4 days after compound addition
From the text: as §1, §2

[5] = test system: DT-R cells (pRRE3-luc-transfected v-ki-ras-transformed NIH3T3 cells); signal derived from Ras oncogene products; test: Inhibitory effect against cellular signaling derived from Ras oncogene products: luciferase reporter, dissociation of DT-R from DT-C activity (MAC); type: cell-based, mouse; details: minimal tested concentration at which luciferase activities of DT-C cells and DT-R cells dissociated
From the text: Test Example 1 Inhibitory Effect Against Cellular Signaling Derived From Ras Oncogene Products
1) Establishment of Cell Lines Used in Assay
Based on the reporter plasmid (pGV-P (Toyo Ink, Japan)), in which luciferase gene was ligated to SV40-derived minimal promoter, we constructed a plasmid designated pRRE3-luc by inserting 3 copies of chemically synthesized oligonucleotides (Sequence: CAGGATATGACTCT, derived from mouse NVL-3 (M. A. Reddy et al.(1992)Mol. Endocrinol., 6, 1051)) into upstream of the promoter. v-ki-ras-transformed NIH3T3 cells (DT cells, provided by Dr. Makoto Noda (Kyoto Univ., School of medicine)) were transfected with this plasmid by liposome-mediated transfection and transfected cell lines stably incorporated and maintained each plasmid were obtained. We named pGV-P and pRRE3-transfected cell line as DT-C and DT-R, respectively and used in the assay described below.
2) Preparation of Samples
i) All the cell lines were cultured in Dulbecco's Modified Essential Medium (DMEM: 10% Fetal Calf Serum(FCS: Hyclone, USA)) including […] kanamycin (Meiji Seika, Japan) in humidified incubator under condition of 5% CO2 at 37° C.
ii) DT-C and DT-R cells were seeded at 2500 cells/well into flat-bottom 96 well multiplate (Sumitomo bakelite) and incubated for 24 hours.
iii) Test compounds were prepared as 1 mg/ml DMSO solution.
iv) The solution of test compounds were added to the culture. Tested compounds are used at the concentration from […] to 0.51 ng/ml with by 3-fold dilution.
v) After 24 hours, the culture supernatant was completely aspirated and […] of cell-lysing solution (PGC-50 (Toyo Ink, Japan)) was added before cells were dried up. In order to the cells were lysed completely, multiwell plates were left at room temperature for 10 to 30 min. The plates were wrapped up and stored at −20° C. till the day of measurement.
3) Measurement of Samples
i) Melt the samples by putting 96 well multiplate at 37° C. and add 90 μl/well 25 mM Tris (pH 7.5).
ii) Transfer 50 μl of the sample (110 μl) to the 96 well microplate for measurement (Microlite 1 (Dynatech)).
iii) Measure the samples by the luminometer, LUMINOUS CT9000D (Dia-Yatron, Japan). We used Pickagene luminescence kit PGL2000 or LT2.0 (Toyo Ink, Japan) as substrates for luminescence measurement (50 μl/well).
4) Judgment of the Results
i) The luciferase activity of DT-C cells and DT-R cells were plotted in the graph where the relative activity and the compound concentration were expressed as Y-axis and X-axis, respectively. We judged by the degree of dissociation between the activities of DT-C cells and DT-R cells as an index.
ii) Concretely, efficacy of the compound was expressed by two values described below.
a) Among the points of concentration tested, the minimal concentration (Minimal Active Concentration: MAC), at which the activities of DT-C cells and DT-R cells dissociated, was shown as an index of efficacy of the compound.

| IC50, PANC-1 [1] | IC50, A549 [2] | IC50, Ma44 [3] | IC50, RERF-LC-AI [4] | IC50, HT29 (human colon cancer HT29) | SMILES | MAC (Minimal Active Concentration) [5] |
| --- | --- | --- | --- | --- | --- | --- |
| 0.037 µg/mL (≈ 0.081 µM) | 0.005 µg/mL (≈ 0.011 µM) | 0.14 µg/mL (≈ 0.307 µM) | 0.016 µg/mL (≈ 0.035 µM) | 0.031 µg/mL (≈ 0.0679 µM) | CCCNC(=Nc1nc(CC)ncc1CSc1nnc(-c2ccc([N+](=O)[O-])cc2)o1)NC [Compound A-150] | 0.123 µg/mL |
| 0.03 µg/mL (≈ 0.0671 µM) | 0.034 µg/mL (≈ 0.0761 µM) | 0.086 µg/mL (≈ 0.192 µM) | 0.013 µg/mL (≈ 0.0291 µM) | 0.015 µg/mL (≈ 0.0336 µM) | CCNC(=Nc1nc(C)ncc1CSc1nnc(-c2ccc(N)cc2Cl)o1)NCC [Compound A-64] | 0.370 µg/mL |
| 0.025 µg/mL (≈ 0.0548 µM) | 0.049 µg/mL (≈ 0.107 µM) | 0.026 µg/mL (≈ 0.057 µM) | 0.016 µg/mL (≈ 0.035 µM) | 0.013 µg/mL (≈ 0.0285 µM) | CCNC(=Nc1nc(C)ncc1CSc1nnc(-c2ccc([N+](=O)[O-])cc2)o1)NC(C)C [Compound A-134] | 0.0137 µg/mL |
| 0.015 µg/mL (≈ 0.0364 µM) | 0.49 µg/mL (≈ 1.19 µM) | 0.086 µg/mL (≈ 0.208 µM) | 0.011 µg/mL (≈ 0.0267 µM) | 0.016 µg/mL (≈ 0.0388 µM) | CCCNC(=Nc1nc(C)ncc1CSc1nnc(-c2ccc(N)cc2)o1)NC [Compound A-148] | 0.123 µg/mL |
| 0.006 µg/mL (≈ 0.0145 µM) | 0.012 µg/mL (≈ 0.0291 µM) | 0.013 µg/mL (≈ 0.0315 µM) | 0.004 µg/mL (≈ 0.0097 µM) | 0.0064 µg/mL (≈ 0.0155 µM) | CNC(=Nc1nc(C)ncc1CSc1nnc(-c2ccc(N)cc2)o1)NC(C)C [Compound A-171] | 0.0137 µg/mL |
| 0.21 µg/mL (≈ 0.474 µM) | 2.1 µg/mL (≈ 4.74 µM) | 0.3 µg/mL (≈ 0.676 µM) | 0.14 µg/mL (≈ 0.316 µM) | 0.089 µg/mL (≈ 0.201 µM) | CCNC(=Nc1ncncc1CSc1nnc(-c2ccc([N+](=O)[O-])cc2)o1)NCCN [Compound A-122] | 1.11 µg/mL |
| 0.006 µg/mL (≈ 0.0141 µM) | 0.012 µg/mL (≈ 0.0281 µM) | 0.025 µg/mL (≈ 0.0586 µM) | 0.0032 µg/mL (≈ 0.0075 µM) | 0.0061 µg/mL (≈ 0.0143 µM) | CCCNC(=Nc1nc(C)ncc1CSc1nnc(-c2ccc(N)cc2)o1)NCC [Compound A-167] | 0.0137 µg/mL |
| 0.021 µg/mL (≈ 0.0475 µM) | 0.051 µg/mL (≈ 0.115 µM) | 0.085 µg/mL (≈ 0.192 µM) | 0.016 µg/mL (≈ 0.0362 µM) | 0.032 µg/mL (≈ 0.0723 µM) | CCNC(=Nc1nc(C)ncc1CSc1nnc(-c2ccc(N)cc2OC)o1)NCC [Compound A-141] | 0.0412 µg/mL |
| 0.0072 µg/mL (≈ 0.018 µM) | 0.017 µg/mL (≈ 0.0425 µM) | 0.0072 µg/mL (≈ 0.018 µM) | 0.0037 µg/mL (≈ 0.00924 µM) | 0.006 µg/mL (≈ 0.015 µM) | CNC(=Nc1ncncc1CSc1nnc(-c2ccc([N+](=O)[O-])cc2)o1)NC [Compound A-173] | 0.123 µg/mL |

More lines, now with the values behind:

| SMILES | IC50, PANC-1 [1] | IC50, A549 [2] | IC50, Ma44 [3] | IC50, RERF-LC-AI [4] | IC50, HT29 (human colon cancer HT29) | MAC (Minimal Active Concentration) [5] |
| --- | --- | --- | --- | --- | --- | --- |
| CCNC(N)=Nc1nc(C)ncc1CSc1nnc(-c2ccc(N)cc2)o1 [Compound A-184] | 0.0032 µg/mL (≈ 0.00832 µM) | 0.01 µg/mL (≈ 0.026 µM) | 0.016 µg/mL (≈ 0.0416 µM) | 0.0027 µg/mL (≈ 0.00702 µM) | 0.0077 µg/mL (≈ 0.02 µM) | 0.0412 µg/mL |
| CCCNC(=Nc1ncncc1CSc1nnc(-c2ccc(N)cc2)o1)NCC [Compound A-178] | 0.005 µg/mL (≈ 0.0121 µM) | 0.014 µg/mL (≈ 0.0339 µM) | 0.024 µg/mL (≈ 0.0582 µM) | 0.0036 µg/mL (≈ 0.00873 µM) | 0.0067 µg/mL (≈ 0.0162 µM) | 0.0412 µg/mL |
| CCNC(=Nc1nc(C)ncc1CSc1nnc(-c2ccc(N)c(C)c2)o1)NCC [Compound A-71] | 0.18 µg/mL (≈ 0.422 µM) | 0.72 µg/mL (≈ 1.69 µM) | 0.31 µg/mL (≈ 0.727 µM) | 0.077 µg/mL (≈ 0.181 µM) | 0.093 µg/mL (≈ 0.218 µM) | 1.11 µg/mL |
| CCNC(=Nc1ncncc1CSc1nnc(-c2ccc([N+](=O)[O-])cc2)o1)NC [Compound A-177] | 0.0038 µg/mL (≈ 0.00917 µM) | 0.0082 µg/mL (≈ 0.0198 µM) | 0.0043 µg/mL (≈ 0.0104 µM) | 0.002 µg/mL (≈ 0.00483 µM) | 0.0037 µg/mL (≈ 0.00893 µM) | 0.0412 µg/mL |
| CCNC(=Nc1nc(C)ncc1CSc1nnc(-c2ccc([N+](=O)[O-])cn2)o1)NCC [Compound D-45] | 0.12 µg/mL (≈ 0.271 µM) | 0.0061 µg/mL (≈ 0.0138 µM) | 0.74 µg/mL (≈ 1.67 µM) | 0.062 µg/mL (≈ 0.14 µM) | 0.038 µg/mL (≈ 0.0857 µM) | 1.11 µg/mL |
| CCNC(N)=Nc1nc(C)ncc1CSc1nnc(-c2ccc([N+](=O)[O-])cc2)o1 [Compound A-185] | 0.0041 µg/mL (≈ 0.00989 µM) | 0.013 µg/mL (≈ 0.0314 µM) | 0.0062 µg/mL (≈ 0.015 µM) | 0.0029 µg/mL (≈ 0.007 µM) | 0.0064 µg/mL (≈ 0.0154 µM) | 0.0137 µg/mL |
| CCNC(=Nc1nc(C)ncc1CSc1nnc(-c2ccccc2NC(C)=O)o1)NC [Compound A-2] | 0.015 µg/mL (≈ 0.034 µM) | 0.017 µg/mL (≈ 0.0386 µM) | 0.022 µg/mL (≈ 0.0499 µM) | 0.009 µg/mL (≈ 0.0204 µM) | 0.015 µg/mL (≈ 0.034 µM) | 0.0412 µg/mL |
| CCCNC(=Nc1nc(CC)ncc1CSc1nnc(-c2ccc(N)cc2)o1)NC [Compound A-151] | 0.024 µg/mL (≈ 0.0563 µM) | 0.07 µg/mL (≈ 0.164 µM) | 0.16 µg/mL (≈ 0.375 µM) | 0.013 µg/mL (≈ 0.0305 µM) | 0.02 µg/mL (≈ 0.0469 µM) | 0.37 µg/mL |
| Cc1ncc(CSc2nnc(-c3ccc([N+](=O)[O-])cc3)o2)c(N=C(NC(C)C)NC(C)C)n1 [Compound A-165] | 0.05 µg/mL (≈ 0.106 µM) | 0.095 µg/mL (≈ 0.202 µM) | 0.055 µg/mL (≈ 0.117 µM) | 0.025 µg/mL (≈ 0.0531 µM) | 0.052 µg/mL (≈ 0.111 µM) | 0.123 µg/mL |
| CCNC(=Nc1nc(C)ncc1CSc1nnc(-c2ccc(N)cc2OC)o1)NCC.Cl [Compound A-189] | 0.021 µg/mL | 0.051 µg/mL | 0.085 µg/mL | 0.016 µg/mL | 0.032 µg/mL | 0.0412 µg/mL |
| CCCNC(=Nc1nc(CC)ncc1CSc1nnc(-c2ccc(N)cc2)o1)NCCC [Compound A-139] | 0.007 µg/mL (≈ 0.0154 µM) | 0.013 µg/mL (≈ 0.0286 µM) | 0.014 µg/mL (≈ 0.0308 µM) | 0.013 µg/mL (≈ 0.0286 µM) | 0.008 µg/mL (≈ 0.0176 µM) | <0.000508 µg/mL |
| CCCCNC(=Nc1nc(C)ncc1CSc1nnc(-c2ccc(N)cc2)o1)NCC [Compound A-180] | 0.0081 µg/mL (≈ 0.0184 µM) | 0.014 µg/mL (≈ 0.0318 µM) | 0.016 µg/mL (≈ 0.0363 µM) | 0.008 µg/mL (≈ 0.0182 µM) | 0.012 µg/mL (≈ 0.0272 µM) | 0.00457 µg/mL |
| CCNC(=Nc1nc(C)ncc1CSc1nnc(-c2ccc(C)cc2)o1)NCC [Compound A-74] | 0.017 µg/mL (≈ 0.0413 µM) | 0.034 µg/mL (≈ 0.0826 µM) | 0.012 µg/mL (≈ 0.0292 µM) | 0.008 µg/mL (≈ 0.0194 µM) | 0.01 µg/mL (≈ 0.0243 µM) | 0.123 µg/mL |
| CCNC(=Nc1ncncc1CSc1nnc(-c2ccc(F)cc2N)o1)NCC [Compound A-65] | 0.0021 µg/mL (≈ 0.00504 µM) | 0.0028 µg/mL (≈ 0.00672 µM) | 0.09 µg/mL (≈ 0.216 µM) | 0.0014 µg/mL (≈ 0.00336 µM) | 0.0014 µg/mL (≈ 0.00336 µM) | <0.000508 µg/mL |
